Experimental data taken from patent US8772500B2, “TRPV3 modulators” (AbbVie Inc., priority 2011, dated 2014).

Legend:
[1] = In vitro human microsomal stability assay; assay type: in vitro ADME; conditions: 0.5 μM substrate, 0.25 mg/mL microsomal protein, pH 7.4, 37° C., NADPH, 30 minutes
Summary of the method: (§1)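 Compounds were incubated at 37 °C with Sprague-Dawley rat liver microsomes (rat assay) or human liver microsomes (human assay) to measure metabolic stability. NADPH was added, including to the time-zero samples.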

CD1 mice = experiment: In vivo chronic constriction injury (CCI) model of neuropathic pain, mechanical allodynia (von Frey); conditions: 100 mg/kg oral dose, 1 hour after dosing, average of eight mice; vehicle 0%, control 100%
Method: Test compounds were evaluated for analgesic effect in an in vivo chronic constriction injury (CCI) model of neuropathic pain. CD1 mice (Charles River) were used for these studies. Prior to testing (2-4 weeks) animals underwent a surgical procedure consisting of approximately 3 loose ligatures around the sciatic nerve. Following sterilization procedures, under isofluorane anesthetic, a 1.5 cm incision was made dorsal to the pelvis. The biceps femoris and gluteous superficialis (right side) were separated and the sciatic nerve exposed, isolated, and 2-4 loose ligatures (5-0 chromic gut) with less than 1 mm spacing were placed around it. Following hemostasis, the wound was sutured (layer of muscle closed with 5-0 nylon suture, and the wound closed with surgical staples) and coated with iodine. The mice were allowed to recover on a warming plate and were returned to their home cages (soft bedding) when able to walk on their own.
Two to four weeks after the surgery, test compound was administered orally (PO) in these mice, and mechanical allodynia was evaluated 1 hour after oral dosing where the threshold to response was assessed using calibrated von Frey monofilaments. The von Frey monofilaments were applied to the hind paw at increasing forces until the animal responded by lifting its paw. […]
Each test compound was evaluated in eight different mice. […]

[2] = In vitro rat microsomal stability assay; assay type: in vitro ADME, rat (Sprague-Dawley); conditions: 0.5 μM substrate, 0.25 mg/mL microsomal protein, pH 7.4, 37° C., NADPH, 30 minutes
Summary of the method: as §1

## C[C@]1(O)C[C@](c2cc(C(F)(F)F)ccn2)([C@H](O)c2ccccn2)C1 (relative stereo) [Example 285, cis-3-[(S)-hydroxy(pyridin-2-yl)methyl]-1-methyl-3-[4-(trifluoromethyl)-pyridin-2-yl]cyclobutanol]
[1]
  HUMAN […] (% REMAINING AFTER 30 MINUTES): 83%
CD1 mice
  % EFFECT: 59%
[2]
  RAT […] (% REMAINING AFTER 30 MINUTES): 69%
